Experimental data as given in US12441695B2, “Substituted thiadiazinone dioxide and preparation method therefor, herbicidal composition, and application therefor” (Qingdao Kingagroot Chemical Compound Co., Ltd., priority 2019, dated 2025).

Assays:
[1] = system: major crops (wheat, corn, rice, soybean, cotton, oilseed rape, millet, sorghum); assay: Experiment on weeding effect in post-emergence stage (crops); type: in vivo; conditions: 600 g/ha active ingredient plus water 450 kg/ha, 3 weeks after application; for corn plant damage level (growth control rate): crop corn; for rice plant damage level (growth control rate): crop rice; for soybean plant damage level (growth control rate): crop soybean
How it was run: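 Weed and crop seeds were sown in soil-filled pots, covered with 0.5–2 cm soil and grown in a greenhouse. Plants were sprayed 2–3 weeks after sowing using a spray tower, with compound dissolved in acetone plus Tween 80 and diluted in water. Effect was expressed as fresh-weight growth control rate.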

[2] = system: monocotyledonous and dicotyledonous weeds; assay: Experiment on weeding effect in post-emergence stage (weeds); type: in vivo; conditions: 600 g/ha active ingredient plus water 450 kg/ha, 3 weeks after application, fresh weight control rate; for Amaranthus retroflexus activity level (growth control rate): fomesafen-resistant Amaranthus retroflexus
How it was run: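 Greenhouse pot-grown weeds and crops sprayed post-emergence 2–3 weeks after sowing with compound in acetone/Tween 80/water. Fresh-weight growth control scored after 3 weeks on a 0–5 scale (5: >85%, 0: <5%).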

SMILES: C=CC(=O)N1c2c(F)cc(F)cc2C(=O)N(C(C)C)S1(=O)=O [Compound 216]
- corn plant damage level (growth control rate) [1]: 0 (Level 0: growth control rate is less than 5%)
- rice plant damage level (growth control rate) [1]: 0 (Level 0: growth control rate is less than 5%)
- Amaranthus retroflexus activity level (growth control rate) [2]: 4 (Level 4: growth control rate is greater than or equal to 60% and less than 85%)
- Digitaria sanguinalis activity level (growth control rate) [2]: 3 (Level 3: growth control rate is greater than or equal to 40% and less than 60%)
- Echinochloa crus-galli activity level (growth control rate) [2]: 3 (Level 3: growth control rate is greater than or equal to 40% and less than 60%)
- Setaria viridis activity level (growth control rate) [2]: 4 (Level 4: growth control rate is greater than or equal to 60% and less than 85%)

SMILES: CC(C)N1C(=O)c2cc(F)ccc2N(C(=O)C(C)(C)C)S1(=O)=O [Compound 182]
- corn plant damage level (growth control rate) [1]: 0 (Level 0: growth control rate is less than 5%)
- rice plant damage level (growth control rate) [1]: 0 (Level 0: growth control rate is less than 5%)
- soybean plant damage level (growth control rate) [1]: 0 (Level 0: growth control rate is less than 5%)
- Amaranthus retroflexus activity level (growth control rate) [2]: 3 (Level 3: growth control rate is greater than or equal to 40% and less than 60%)

SMILES: CC(C)N1C(=O)c2cc(F)cc(I)c2NS1(=O)=O [Compound 145]
- corn plant damage level (growth control rate) [1]: 1 (Level 1: growth control rate is greater than or equal to 500 and less than 200%)
- rice plant damage level (growth control rate) [1]: 0 (Level 0: growth control rate is less than 5%)
- soybean plant damage level (growth control rate) [1]: 0 (Level 0: growth control rate is less than 5%)
- Amaranthus retroflexus activity level (growth control rate) [2]: 4 (Level 4: growth control rate is greater than or equal to 60% and less than 85%)
- Digitaria sanguinalis activity level (growth control rate) [2]: 4 (Level 4: growth control rate is greater than or equal to 60% and less than 85%)
- Echinochloa crus-galli activity level (growth control rate) [2]: 4 (Level 4: growth control rate is greater than or equal to 60% and less than 85%)
- Setaria viridis activity level (growth control rate) [2]: 5 (Level 5: growth control rate is above 85%)

SMILES: CC(C)N1C(=O)c2cc(F)cc(F)c2N(C(=O)C2CC2)S1(=O)=O [Compound 217]
- corn plant damage level (growth control rate) [1]: 1 (Level 1: growth control rate is greater than or equal to 500 and less than 200%)
- Amaranthus retroflexus activity level (growth control rate) [2]: 5 (Level 5: growth control rate is above 85%)
- Digitaria sanguinalis activity level (growth control rate) [2]: 5 (Level 5: growth control rate is above 85%)
- Echinochloa crus-galli activity level (growth control rate) [2]: 5 (Level 5: growth control rate is above 85%)
- Setaria viridis activity level (growth control rate) [2]: 5 (Level 5: growth control rate is above 85%)

SMILES: CC(C)N1C(=O)c2cc(F)cc(Cl)c2NS1(=O)=O [Compound 144]
- corn plant damage level (growth control rate) [1]: 1 (Level 1: growth control rate is greater than or equal to 500 and less than 200%)
- rice plant damage level (growth control rate) [1]: 0 (Level 0: growth control rate is less than 5%)
- soybean plant damage level (growth control rate) [1]: 1 (Level 1: growth control rate is greater than or equal to 500 and less than 200%)
- Amaranthus retroflexus activity level (growth control rate) [2]: 5 (Level 5: growth control rate is above 85%)
- Digitaria sanguinalis activity level (growth control rate) [2]: 5 (Level 5: growth control rate is above 85%)
- Echinochloa crus-galli activity level (growth control rate) [2]: 5 (Level 5: growth control rate is above 85%)
- Setaria viridis activity level (growth control rate) [2]: 5 (Level 5: growth control rate is above 85%)

SMILES: COCN1c2ccc(F)cc2C(=O)N(C(C)C)S1(=O)=O [Compound 56]
- corn plant damage level (growth control rate) [1]: 0 (Level 0: growth control rate is less than 5%)
- rice plant damage level (growth control rate) [1]: 0 (Level 0: growth control rate is less than 5%)
- soybean plant damage level (growth control rate) [1]: 0 (Level 0: growth control rate is less than 5%)
- Amaranthus retroflexus activity level (growth control rate) [2]: 3 (Level 3: growth control rate is greater than or equal to 40% and less than 60%)

SMILES: CCC(C)N1C(=O)c2cc(F)ccc2NS1(=O)=O (stereo not drawn) [Compound 161]
- corn plant damage level (growth control rate) [1]: 0 (Level 0: growth control rate is less than 5%)
- rice plant damage level (growth control rate) [1]: 1 (Level 1: growth control rate is greater than or equal to 500 and less than 200%)
- soybean plant damage level (growth control rate) [1]: 0 (Level 0: growth control rate is less than 5%)
- Setaria viridis activity level (growth control rate) [2]: 3 (Level 3: growth control rate is greater than or equal to 40% and less than 60%)

SMILES: CCCCCCCCSC(=O)N1c2ccc(F)cc2C(=O)N(C(C)C)S1(=O)=O [Compound 189]
- corn plant damage level (growth control rate) [1]: 0 (Level 0: growth control rate is less than 5%)
- rice plant damage level (growth control rate) [1]: 0 (Level 0: growth control rate is less than 5%)
- soybean plant damage level (growth control rate) [1]: 0 (Level 0: growth control rate is less than 5%)
- Amaranthus retroflexus activity level (growth control rate) [2]: 4 (Level 4: growth control rate is greater than or equal to 60% and less than 85%)

SMILES: CCC(=O)N1c2ccc(F)cc2C(=O)N(C(C)C)S1(=O)=O [Compound 179]
- corn plant damage level (growth control rate) [1]: 0 (Level 0: growth control rate is less than 5%)
- rice plant damage level (growth control rate) [1]: 1 (Level 1: growth control rate is greater than or equal to 500 and less than 200%)
- soybean plant damage level (growth control rate) [1]: 1 (Level 1: growth control rate is greater than or equal to 500 and less than 200%)
- Amaranthus retroflexus activity level (growth control rate) [2]: 5 (Level 5: growth control rate is above 85%)
- Echinochloa crus-galli activity level (growth control rate) [2]: 5 (Level 5: growth control rate is above 85%)
- Setaria viridis activity level (growth control rate) [2]: 3 (Level 3: growth control rate is greater than or equal to 40% and less than 60%)

SMILES: CC(C)OC(=O)N1c2c(F)cc(F)cc2C(=O)N(C(C)C)S1(=O)=O [Compound 219]
- corn plant damage level (growth control rate) [1]: 1 (Level 1: growth control rate is greater than or equal to 500 and less than 200%)
- Amaranthus retroflexus activity level (growth control rate) [2]: 5 (Level 5: growth control rate is above 85%)
- Digitaria sanguinalis activity level (growth control rate) [2]: 3 (Level 3: growth control rate is greater than or equal to 40% and less than 60%)
- Echinochloa crus-galli activity level (growth control rate) [2]: 5 (Level 5: growth control rate is above 85%)
- Setaria viridis activity level (growth control rate) [2]: 5 (Level 5: growth control rate is above 85%)

SMILES: CCN1C(=O)c2cc(F)ccc2NS1(=O)=O [Compound 157]
- corn plant damage level (growth control rate) [1]: 0 (Level 0: growth control rate is less than 5%)
- rice plant damage level (growth control rate) [1]: 0 (Level 0: growth control rate is less than 5%)
- soybean plant damage level (growth control rate) [1]: 0 (Level 0: growth control rate is less than 5%)
- Amaranthus retroflexus activity level (growth control rate) [2]: 3 (Level 3: growth control rate is greater than or equal to 40% and less than 60%)

SMILES: CC(C)N1C(=O)c2cc(F)ccc2NS1(=O)=O [Compound 2]
- corn plant damage level (growth control rate) [1]: 1 (Level 1: growth control rate is greater than or equal to 500 and less than 200%)
- rice plant damage level (growth control rate) [1]: 0 (Level 0: growth control rate is less than 5%)
- soybean plant damage level (growth control rate) [1]: 1 (Level 1: growth control rate is greater than or equal to 500 and less than 200%)
- Amaranthus retroflexus activity level (growth control rate) [2]: 5 (Level 5: growth control rate is above 85%)
- Digitaria sanguinalis activity level (growth control rate) [2]: 3 (Level 3: growth control rate is greater than or equal to 40% and less than 60%)
- Echinochloa crus-galli activity level (growth control rate) [2]: 4 (Level 4: growth control rate is greater than or equal to 60% and less than 85%)
- Setaria viridis activity level (growth control rate) [2]: 4 (Level 4: growth control rate is greater than or equal to 60% and less than 85%)
